Experimental data as given in patent US20130156845A1, “LIPID FORMULATED SINGLE STRANDED RNA” (ALNYLAM PHARMACEUTICALS, INC., priority 2010, published 2013).
Read-outs that look alike come from different tables or passages of the source. Strand notation (5' to 3'): a small letter for the sugar, then the base; units joined by * are phosphorothioate-linked, units joined directly phosphodiester-linked; [ ] holds rarer units or linkages, { } end groups; capitals alone tell only the bases. {PS2} = PS2 group (structure drawn in the publication); {PS} = PS group (structure drawn in the publication); e = 2'-O-(2-methoxyethyl) (MOE); m = 2'-O-methyl; {P} = phosphate; f = 2'-fluoro

Columns and labels:
PTEN [1] = assay: In vivo evaluation of ssRNA formulated in lipid particle LNP06, liver PTEN mRNA (Example 77); design: species or system mouse; details: ssRNA formulated in LNP06, 4.5 mg/kg tail vein, C57BL/6 mice, liver PTEN mRNA normalized to GAPDH, 2 days post injection
Method: In accordance with the present disclosure, oligomeric compounds were synthesized and tested for their ability to reduce PTEN. C57BL/6 mice (Charles River Labs, MA) received either saline or LNP formulated single stranded RNA via tail vein injection at a volume of 0.01 mL/g and the single stranded RNA dose is 4.5 mg/kg. 25 groups of female mice and 9 modified ssRNAs targeting PTEN were formulated in LNP06 and tested. To determine liver mRNA levels of PTEN, 2 days post injection, animals were sacrificed and livers were harvested and snap frozen in liquid nitrogen. Liver lysates were prepared from the frozen tissues and liver mRNA levels of PTEN normalized to GAPDH were quantified using a branched DNA assay (QuantiGene Assay, Panomics, Calif.).

human PTEN = assay: PTEN expression in HeLa cells, ssRNAs vs siRNAs (Example 62); assay type: cell-based
Method: A series of 5′ and 2′ bis-substituted modified oligomeric compounds were prepared as single strand RNAs (ssRNAs). The antisense (AS) strands listed below were designed to target human PTEN, and each was also assayed as part of a duplex with the same sense strand (ISIS 341401, shown below) for their ability to reduce PTEN expression levels. HeLa cells were treated with the single stranded or double stranded oligomeric compounds created with the antisense compounds shown below using methods described herein. The IC50's were calculated using the linear regression equation generated by plotting the normalized mRNA levels to the log of the concentrations used.

PTEN [2] = assay: PTEN mRNA reduction in HeLa cells, dose response (Example 72); assay type: cell-based, human; details: percent inhibition of PTEN mRNA, 0.167-50 nM
Method: In accordance with the present disclosure, oligomeric compounds were synthesized and tested for their ability to reduce PTEN expression over a range of doses. Human HeLa cells were treated with the following oligomeric compounds. A dose comparison was evaluated with dose concentrations of 0.167, 0.5, 1.5, 5, 15 and 50 nM using methods described herein. Expression levels of PTEN were determined using real-time PCR and normalized to RIBOGREEN™ using methods described herein. The percent inhibition of PTEN mRNA was determined and the resulting dose-response curves were used to determine the IC50. The IC50s are listed below.

[3] = ssRNA stability in hepatocyte cell homogenate assay (Example 65); assay type: in vitro ADME; details: mouse hepatocyte homogenate, LC-MS
Method: Hepatocytes were harvested from bal/c mice in ice-cold hepatocyte wash media (William E Media) with fetal bovine serum, sedimented by centrifugation at 1000 g for 8 minutes and then washed with hepatocyte wash media. Hepatocytes were homogenized with RIPA buffer (50 mM Tris pH 7.5, 10 mM MgCl2, 150 mM NaCl, 0.5% NP-40 alternative, one tablet of Roche protease inhibitor #11836170001), and centrifuged at 14000 g for 15 minutes at 4° C. and the supernatant was removed and stored in ice. Protein concentration (BSA mg/mL) was determined with Bradford assay and adjusted to a final protein concentration of 2 mg/mL by addition of Ripa buffer volume or cell homogenate volume.
[…] were homogenized in a homogenation buffer (20 mM Tris, pH 8, 20 mM EDTA and 0.1 M NaCl in 0.5% NP-40) at time points 0, 5, 10, 20, 30, 40 and 60 minutes (Exception: 06/408877 at time points 0, 15, 30, 60, 120 and 240 mins, 06/409044, at time points 0, 0.5, 1, 2, 4, 8, and 18 hours). An internal standard (18/355868, a 27-mer, 2′-O-methoxyethyl-modified phosphorothioate oligonucleotide, or 19/116847, a 5-10-5 gappmer, 2′-O-methoxyethyl-modified phosphorothioate oligonucleotide) with concentration at 20 ug/g was added prior to extraction. Tissue samples were extracted with 70 μL of NH4OH and 240 μL of phenol/chloroform/isoamyl alcohol (25:24:1). The supernatant was removed after centrifugation at 14000 rpm for 2 min. The remaining extractant was vortexed with an additional […] of water and the aqueous layer was removed and combined with the supernatant after centrifugation at 14000 rpm for 2 minutes.
Triethylammonium acetate solution at 1M ([…]) was added to the supernatant. The aqueous layer of the mixture was loaded onto the pre-conditioned Biotage™ Phenyl Solid Phase Extraction Plate (SPE plate) after centrifugation at 9000 rpm for 20 minutes. The SPE plate was washed several times with water. The sample was then eluted with 1.5 mL of 1% TEA in 90% MeOH and filtered through the Protein Precipitation Plate (Phenomenex™). The elutent was evaporated to dryness and diluted to 200 μL with 50% quenching buffer (8 M urea, 50 mM EDTA) and water before sample injection.
An Agilent 1100 Series LC/MSD system was connected in-line to a mass spectrometry. Mass spectrometer was operated in the electrospray negative ionization mode. The nebulizer nitrogen gas was set at […] and the drying nitrogen gas was set at 12 L/min. The drying temperature was 325° C. Samples (25 μL/well) were introduced via an auto sampler and reversed-phase chromatography was carried out with an XBridge OST C18 2.5 μm 2.1 mm×50 mm HPLC column using a flow rate of 300 μL/min at 55° C. The ion pair buffers consisted of A: 5 mM tributylammonium acetate (TBAA) in 20% acetonitrile and B: […] TBAA in 90% acetonitrile and the loading buffer was 25 mM TBAA in 25% Acetonitrile. Separation was performed on a 30% to 70% B in 9 min and then 80% B in 11 min gradient.
Quantitative analysis of oligonucleotide and internal standard by extracted ion chromatograms of the most abundant ions was performed using MSD ChemStation software. The results are expressed as half-time (T1/2) in the table below.

PTEN [4] = assay: PTEN mRNA reduction in HeLa cells, dose response (Example 64); assay type: cell-based, human; details: real-time PCR, 1.56-50 nM
Method: A dose response experiment was performed targeting PTEN in human HeLa cells to determine the effects of placement of sugar and internucleoside linkages within ssRNAs. More specifically, the modified ssRNAs were tested for their ability to reduce PTEN mRNA in cultured cells. The modified ssRNAs are shown below, and contain 2′-OMe and 2′-fluoro modified nucleosides, two 2′-O-MOE modified nucleosides at the 3′-terminus, and seven phosphorothioate linkages at the 3′-terminus of the ssRNAs.
HeLa cells were treated with ssRNAs shown below at concentrations of 1.56 nM, 3.13 nM, 6.25 nM, 12.5 nM, […] and 50 nM using methods described herein. Levels of mRNA were determined using real-time PCR methods as described herein. The IC50 for each ssRNA was determined.

PTEN [5] = assay: Liver PTEN mRNA in Balb/c mice, unformulated oligomeric compounds (Example 70); assay type: in vivo, mouse; details: 48 h
Method: Six-week-old male Balb/c mice (Jackson Laboratory, Bar Harbor, Me.) were injected intraperitenially with a single dose of 75 mg/kg of one of the three oligomeric compounds above or with saline control. Each dose group consisted of four animals. The mice were sacrificed 48 hours following administration. Livers were collected and PTEN mRNA levels were assessed using real-time PCR and RIBOGREEN® RNA quantification reagent (Molecular Probes, Inc. Eugene, Oreg.) according to standard protocols. PTEN mRNA levels were determined relative to total RNA (using Ribogreen), and normalized to the saline-treated control. Results are listed below as the average % inhibition of PTEN mRNA expression for each treatment group, normalized to saline-injected control.

| Substance | % Kd (PTEN [1]) [%] | T1/2 Test 1 [3] [min] | IC50 (PTEN [4]) [nM] | other results |
| --- | --- | --- | --- | --- |
| P-TdUfGmUfCmUfCmUfGmGfUmCfCmUfUmAfCmUfUmAeAe (antisense TUGUCUCUGGUCCUUACUUAA; 5'-phosphate, chemical modifications, chemistry not fully specified) [ISIS 435397, modified ssRNA targeting PTEN] | 44 |  |  | EC50 (human PTEN; antisense strand duplexed with sense strand ISIS 341401, PTEN mRNA, read-out: EC50 (nM) siRNA): 0.4 nM; EC50 (human PTEN; single stranded antisense compound, PTEN mRNA, read-out: EC50 (nM) ssRNA): 2 nM; IC50 (PTEN [2]): 2 nM |
| P-TmoeUfGmUfCmUfCmUfGmGfUmCfCmUfUmAfCmUfUmAeAe (antisense {P}-eT*fU*mGfU*mCfU*mCfU*mGfG*mUfC*mCfU*mU*fA*mC*fU*mU*eA*eA) [A-53286, modified ssRNA targeting PTEN] | 67 |  |  |  |
| P-USSUfGmUfCmUfCmUfGmGfUmCfCmUfUmAfCmUfUmAeAe (antisense TUGUCUCUGGUCCUUACUUAA; 5'-phosphate, 2'-F/2'-OMe, MOE modifications, chemistry not fully specified) [ISIS 467088, modified ssRNA targeting PTEN] | 50 |  |  |  |
| P-UfUfGfUfCfUfCmUfGmGfUmCfCmUfUmAfCmUfUmTeTe (antisense UUGUCUCUGGUCCUUACUUTT; 5'-phosphate, modified nucleotides, chemistry not fully specified) [ISIS 409049, modified ssRNA targeting PTEN] |  | 13 | 16.2 |  |
| P-UfUfGfUfCfUmCmUfGfGmUmCfCfUfUfAfCmUmUmAeAe (antisense UUGUCUCUGGUCCUUACUUAA; sugars from the 5' end fffffmmffmmfffffmmmee, 5' {P}, backbone not given here) [ISIS 408874, modified ssRNA targeting PTEN] |  | 22 | 6 | T1/2 Test 2 [3]: 18 min |
| P-UfUfGfUfCfUmCmUfGfGmUmCfCfUfUfAfCmUmUmTeTe (antisense UUGUCUCUGGUCCUUACUUTT; 5'-phosphate, modified nucleotides, chemistry not fully specified) [ISIS 409062, modified ssRNA targeting PTEN] |  | 17 | 8.6 |  |
| P-UmUfGfUfCfUmCmUfGfGmUmCfCfUfUfAfCmUmUmAeAe (antisense UUGUCUCUGGUCCUUACUUAA; sugars from the 5' end mffffmmffmmfffffmmmee, 5' {P}, backbone not given here) [ISIS 408877, modified ssRNA targeting PTEN] |  | 30 | 7 | T1/2 Test 2 [3]: 24 min |
| P-UmUfGmUfCmUfCmUfGmGfUmCfCmUfUmAfCmUfUmAeAe (antisense UUGUCUCUGGUCCUUACUUAA; sugars from the 5' end mfmfmfmfmfmfmfmfmfmee, 5' {P}, backbone not given here) [ISIS 409044, modified ssRNA targeting PTEN] |  | 240 | 10.5 | T1/2 Test 2 [3]: 258 min |
| PS2-TmoeUfGmUfCmUfCmUfGmGfUmCfCmUfUmAfCmUfUmAeAe (antisense {PS2}-eT*fU*mGfU*mCfU*mCfU*mGfG*mUfC*mCfU*mU*fA*mC*fU*mU*eA*eA) [A-59890, modified ssRNA targeting PTEN] | 31 |  |  |  |
| PS-TmoeUfGmUfCmUfCmUfGmGfUmCfCmUfUmAfCmUfUmAeAe (antisense {PS}-eT*fU*mGfU*mCfU*mCfU*mGfG*mUfC*mCfU*mU*fA*mC*fU*mU*eA*eA) [A-59889, modified ssRNA targeting PTEN] | 45 |  |  |  |
| UfUfGfUfCfUfCmUfGmGfUmCfCmUfUmAfCmUfUmAeAe (UUGUCUCUGGUCCUUACUUAA; sugars from the 5' end ffffffmfmfmfmfmfmfmee, backbone not given here) [ISIS 407047, modified ssRNA targeting PTEN] |  | 6 | 3.5 |  |
| ^meCeTeGe^meCeTeAG^meC^meCT^meCTGGATeTeTeGeAe [ISIS 116847, reference compound] |  |  |  | inhibition of PTEN (PTEN [5]; 75 mg/kg, liver): potent inhibitor of PTEN; % inhibition (PTEN [5]; liver PTEN mRNA, single i.p. dose 75 mg/kg, normalized to saline control): 76% |
